Test systems include OVCAR-5 ovarian; MDA-MB-435; HT29 colon; U251 CNS; COLO 205 colon; HCT-15 colon; A549 NSCLC; UO-31 renal; HOP-92 NSCLC; MDA-N.
What all share (experiment): DTP human tumour cell line panel, 48 h

What is called TGI is the concentration at which net growth stops. High values mean less potent growth arrest, low ones more potent growth arrest. Broadly, the GI50 is the concentration at which growth is held to half of that of the control.

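48-hour exposure; five concentrations; linearly interpolated endpoints. GI50: concentration for 50% inhibition of growth. Definition used: TGI = concentration required for complete inhibition of growth.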

As to `O=C1[C@H](O)[C@@H]2C(O)O[C@H]3[C@@H]2N1C[C@H]3[Si](c1ccccc1)(c1ccccc1)c1ccccc1` (stereo not given in full), the TGI in the test on OVCAR-5 ovarian, in the test on MDA-MB-435, with HT29 colon, in the test with U251 CNS, in the test with COLO 205 colon and in the test on HCT-15 colon was more than 100 µM throughout. Further, the concentration for total growth inhibition (TGI) with A549 NSCLC and in the test with UO-31 renal was more than 100 µM throughout.

Take `O=C(Nc1ccccc1)N(C1=NCC(CI)S1)c1ccc(F)c(F)c1` (stereo not given): the TGI is more than 100 µM in the test with OVCAR-5 ovarian; 26.3 µM in the test on HOP-92 NSCLC; more than 100 µM with HT29 colon; more than 100 µM in the test with U251 CNS; 96.3 µM with MDA-N; more than 100 µM in the test with COLO 205 colon. The TGI with HCT-15 colon, with A549 NSCLC and in the test on UO-31 renal was more than 100 µM in each case.

`CN1CCC(CNc2cc(C3(C(=O)Nc4cc(C(=O)Nc5ccc(Cl)c(C(F)(F)F)c5)ccc4F)CC3)ncn2)CC1`: the GI50 in the test with OVCAR-5 ovarian was 3.28 µM; in the test on MDA-MB-435 it was 1.84 µM; in the test with HT29 colon it was 1.73 µM; in the test with U251 CNS, 1.63 µM; in the test with HCT-15 colon it was 1.6 µM; in the test with A549 NSCLC, 2.29 µM. Further, the concentration for total growth inhibition (TGI) was 11.4 µM with OVCAR-5 ovarian; 4.04 µM in the test on MDA-MB-435; 5.09 µM with HT29 colon; 3.62 µM in the test on U251 CNS; 4.19 µM in the test on HCT-15 colon; 5.54 µM in the test with A549 NSCLC.

For the compound `Cc1ccc(C(=N)c2ccccc2Cc2cccc3ccccc23)c2ccccc12`, the TGI in the test with OVCAR-5 ovarian, in the test on HOP-92 NSCLC, in the test on MDA-MB-435, with HT29 colon, in the test with U251 CNS and with COLO 205 colon was more than 100 µM in each case. Moreover, the concentration for total growth inhibition (TGI) with HCT-15 colon, with A549 NSCLC and with UO-31 renal was more than 100 µM in each case.

Regarding `CCCCCOc1ccc(C=Nc2ccc(CCc3ccc(N=Cc4ccc(OCCCCC)cc4)cc3)cc2)cc1`, the total growth inhibition concentration (TGI) in the test on OVCAR-5 ovarian, in the test with HOP-92 NSCLC, in the test with HT29 colon, in the test on U251 CNS, in the test with COLO 205 colon and in the test with HCT-15 colon was more than 100 µM in each case. Further, the concentration for total growth inhibition (TGI) in the test on A549 NSCLC and in the test with UO-31 renal was more than 100 µM each time.

With `CNC(C)(C)Cc1ccc(Cl)cc1`, the TGI in the test with HT29 colon, in the test with U251 CNS, in the test with COLO 205 colon and with A549 NSCLC was more than 100 µM in each case.

`c1ccc(-c2csc3c4ccccc4c4ccccc4[n+]23)cc1`: the concentration for total growth inhibition (TGI) in the test on OVCAR-5 ovarian is 35.8 µM; in the test with HOP-92 NSCLC it was 24.9 µM; with HT29 colon, 20.6 µM; in the test on U251 CNS, 13.8 µM; in the test on COLO 205 colon, 7.73 µM; with HCT-15 colon it was more than 78.7 µM. Besides, the values for the TGI with A549 NSCLC and with UO-31 renal were 19.5 µM and 31.8 µM, respectively.

Take `Cc1ccc(C)c(NC(=O)C(=O)C(C(=O)c2ccc3ccccc3c2)C2OC(=O)c3ccccc32)c1` (stereo not given): the total growth inhibition concentration (TGI) with OVCAR-5 ovarian was 42.5 µM; in the test on HOP-92 NSCLC it was 78 µM; in the test on HT29 colon it was more than 100 µM; in the test on U251 CNS it was 16.2 µM; in the test on COLO 205 colon it was 32.1 µM; with HCT-15 colon, 44.8 µM. Moreover, the values for the concentration for total growth inhibition (TGI) in the test with A549 NSCLC and in the test on UO-31 renal were 45.7 µM and 31.6 µM, respectively.

Consider `O=C(Nc1ccccc1F)c1cc2ccc(O)cc2oc1=Nc1cccc(F)c1`, for which the total growth inhibition concentration (TGI) was 71 µM with OVCAR-5 ovarian; 35.7 µM in the test on MDA-MB-435; more than 100 µM in the test on HT29 colon; 29.8 µM in the test on U251 CNS; 43.3 µM in the test on MDA-N; 77.3 µM in the test with COLO 205 colon. Also, the concentration for total growth inhibition (TGI) was determined as 24.4 µM with HCT-15 colon, 33.7 µM with A549 NSCLC and 29.3 µM in the test on UO-31 renal.

Consider `O=c1[nH]/c(=C/c2ccc(OCc3ccccc3)cn2)c(=O)[nH]/c1=C/c1ccccc1`, for which the TGI in the test with OVCAR-5 ovarian was more than 100 µM; in the test with HOP-92 NSCLC it was more than 100 µM; with MDA-MB-435, 0.567 µM; in the test on HT29 colon, more than 100 µM; in the test with U251 CNS, more than 91.6 µM; with COLO 205 colon it was more than 25.4 µM. The TGI is more than 46.4 µM with HCT-15 colon, more than 100 µM in the test with A549 NSCLC and more than 100 µM in the test with UO-31 renal.

For the compound `Cn1c(=O)c2[nH]c(N/N=N/c3nncs3)nc2n(C)c1=O`, the TGI in the test with OVCAR-5 ovarian, in the test on HOP-92 NSCLC, in the test on MDA-MB-435, in the test on HT29 colon, in the test with U251 CNS and with COLO 205 colon was more than 100 µM throughout. Further, the total growth inhibition concentration (TGI) with HCT-15 colon, in the test with A549 NSCLC and in the test on UO-31 renal was more than 100 µM throughout.

For `c1ncn(C23C4C5C6C4C2C6C53)n1` (stereo not given), the concentration for total growth inhibition (TGI) in the test with OVCAR-5 ovarian, in the test with MDA-MB-435, with HT29 colon, in the test with U251 CNS, in the test with MDA-N and in the test with COLO 205 colon was more than 100 µM in each case. Moreover, the TGI with HCT-15 colon and with A549 NSCLC was more than 100 µM each time.

On to `Cc1cc([NH-])c([NH-])cc1C.[Cl][Pt+2][Cl]`, for which the GI50 was more than 59.8 µM in the test with OVCAR-5 ovarian; 16.2 µM in the test on HOP-92 NSCLC; 16.6 µM with HT29 colon; 5.24 µM in the test on U251 CNS; 14.8 µM in the test on COLO 205 colon; 10.9 µM in the test on HCT-15 colon. Moreover, the GI50 in the test on A549 NSCLC was 49 µM; in the test on UO-31 renal it was more than 77.4 µM. Besides, the TGI with OVCAR-5 ovarian is more than 83.5 µM; in the test with HOP-92 NSCLC, 40.7 µM; with HT29 colon it was 40 µM; in the test with U251 CNS, 17 µM; with COLO 205 colon it was 34.9 µM; with HCT-15 colon it was 32.3 µM. The concentration for total growth inhibition (TGI) in the test with A549 NSCLC and in the test on UO-31 renal was more than 100 µM in each case.

In the case of `CCN(CCCOc1ccccc1)CCN(CC)CCCOc1ccccc1`, the concentration for total growth inhibition (TGI) in the test on OVCAR-5 ovarian was found to be 38.9 µM; with MDA-MB-435 it was 34.2 µM; in the test on HT29 colon, 27.4 µM; with U251 CNS it was 27.5 µM; with COLO 205 colon, 24.5 µM; in the test on HCT-15 colon, 30 µM. Also, the TGI in the test with A549 NSCLC is 28.7 µM; in the test with UO-31 renal it was 22.3 µM.

Consider `CCCCN(CCCC)Cc1cc(Nc2ccnc3cc(Cl)ccc23)ccc1O`, for which the GI50 is 0.982 µM with HOP-92 NSCLC; 0.491 µM in the test with HT29 colon; 7.82 µM in the test with U251 CNS; 6.68 µM with COLO 205 colon; 19.8 µM with A549 NSCLC; 1.38 µM in the test with UO-31 renal. The TGI in the test on HOP-92 NSCLC was 22.9 µM; in the test on HT29 colon it was more than 100 µM; in the test with U251 CNS, more than 100 µM; in the test on COLO 205 colon it was more than 100 µM; in the test with A549 NSCLC, more than 100 µM; with UO-31 renal, more than 100 µM.

Regarding `C1=C(c2ccccc2)SC(N2CCCCC2)S1` (stereo not given), the TGI in the test with OVCAR-5 ovarian, with HOP-92 NSCLC, in the test on HT29 colon, with U251 CNS, in the test with COLO 205 colon and with HCT-15 colon was more than 100 µM throughout. Moreover, the total growth inhibition concentration (TGI) in the test with UO-31 renal was more than 100 µM.

For the compound `CCOC(=O)C(C#N)(Cc1c[nH]c2ccccc12)NC(C)=O` (stereo not given), the TGI with OVCAR-5 ovarian, with HOP-92 NSCLC, with HT29 colon, in the test with U251 CNS, in the test with COLO 205 colon and in the test on HCT-15 colon was more than 100 µM throughout. The same compound showed a concentration for total growth inhibition (TGI) with UO-31 renal of more than 100 µM.

As for `O=S1(=O)c2ccccc2Oc2ccc(C(/C=N/O)=N/O)cc21`, the total growth inhibition concentration (TGI) with OVCAR-5 ovarian was more than 100 µM; in the test on HOP-92 NSCLC, more than 100 µM; in the test with MDA-MB-435, 52.4 µM; with HT29 colon, more than 100 µM; in the test with U251 CNS, more than 100 µM; in the test on COLO 205 colon, more than 100 µM. The concentration for total growth inhibition (TGI) with HCT-15 colon is more than 100 µM; in the test with A549 NSCLC it was more than 100 µM; with UO-31 renal, 68.8 µM.

Consider `CCOC(=O)c1ccc(-n2[nH]nc(C(N)=O)c2=O)cc1`, for which the TGI in the test with OVCAR-5 ovarian, with MDA-MB-435, in the test on HT29 colon, with U251 CNS, in the test with MDA-N and in the test with COLO 205 colon was more than 100 µM each time. Moreover, the total growth inhibition concentration (TGI) with HCT-15 colon, with A549 NSCLC and in the test with UO-31 renal was more than 100 µM throughout.

On to `N=C1C(=N)c2ccccc2-c2ccccc21.[Cl-].[Ru+2].c1ccc(-c2ccccn2)nc1.c1ccc(-c2ccccn2)nc1`, for which the TGI in the test with OVCAR-5 ovarian, with HOP-92 NSCLC, with HT29 colon, in the test on U251 CNS, with HCT-15 colon and in the test on A549 NSCLC was more than 100 µM in each case. Further, in the test on UO-31 renal, the TGI was more than 100 µM.

With `CC(C)(C)c1ccc(OCCOc2ccc(C(C)(C)C)cc2N)c(N)c1`, the TGI with OVCAR-5 ovarian, with HOP-92 NSCLC, in the test with MDA-MB-435, in the test on HT29 colon, in the test on U251 CNS and in the test with COLO 205 colon was more than 100 µM in each case. The TGI in the test with HCT-15 colon, in the test with A549 NSCLC and in the test on UO-31 renal was more than 100 µM throughout.

As for `O=C(/C=C(/C=C/c1ccc2[nH]ccc2c1)OB(F)F)/C=C/c1ccc2[nH]ccc2c1`, the GI50 was 2.75 µM with OVCAR-5 ovarian; 2.68 µM in the test on HOP-92 NSCLC; 1.47 µM in the test with HT29 colon; 0.653 µM with HCT-15 colon; 1.35 µM in the test with UO-31 renal. In addition, the TGI in the test with OVCAR-5 ovarian was more than 100 µM; in the test with HOP-92 NSCLC, more than 100 µM; in the test with HT29 colon it was more than 100 µM; with HCT-15 colon, 4.43 µM; with UO-31 renal it was 5.55 µM.
